Source: article PMC6917776, “Discovery of a chemical probe for PRDM9” (Nature Communications, 2019)
Like-named read-outs stand apart in the source and are kept apart here.

Legend:
Format in all cases: biochemical
SETD7 = biological target: T1, SETD7 (Homo sapiens, UniProt Q8WTS6); experiment: Methyltransferase selectivity assay (SPA)
T1 construct: purchased Structural Genomics Consortium (SGC Toronto) in-house methyltransferase panel
T1 sequence (Q8WTS6 1-366): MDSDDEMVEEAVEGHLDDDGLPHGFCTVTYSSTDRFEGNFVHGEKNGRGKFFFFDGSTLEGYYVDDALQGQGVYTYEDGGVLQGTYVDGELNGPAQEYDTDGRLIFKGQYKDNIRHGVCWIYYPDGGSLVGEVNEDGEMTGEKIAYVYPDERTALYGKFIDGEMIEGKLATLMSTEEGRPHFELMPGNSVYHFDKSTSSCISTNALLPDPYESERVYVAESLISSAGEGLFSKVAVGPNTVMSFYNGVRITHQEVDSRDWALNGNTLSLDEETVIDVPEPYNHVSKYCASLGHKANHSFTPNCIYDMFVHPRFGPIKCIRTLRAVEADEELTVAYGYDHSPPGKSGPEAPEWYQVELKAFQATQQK
Procedure: (§1) Selectivity against methyltransferases were determined as described previously. Details of the assays are described in the supplementary methods.
(§2) Methyltransferase selectivity assay1
(§3) The effect of chemical probes and negative controls on the methyltransferase activities of protein, DNA and RNA methyltransferases was tested by radiometric assays using 3H-SAM. For proteins such as MLL1 trimeric, MLL3 pentameric, EZH1 (PRC2) pentameric, and EZH2 (PRC2) trimeric complexes, as well as G9a, GLP, SUV39H1, SUV39H2, SUV420H1, SUV420H2, SETD2, SETD8, SETDB1, SETD7, PRMT1, PRMT3, PRMT4, PRMT5/ MEP50 complex, PRMT6, PRMT7, PRMT8, PRMT9, PRDM9, SMYD2, SMYD3, DNMT1, and BCDIN3D the incorporation of a tritium-labeled methyl group into biotinylated substrate was monitored using scintillation proximity assay (SPA). Briefly, a 10 µL reaction containing 3H-SAM and substrate at concentrations close to the apparent Km values for each enzyme (balanced conditions) was prepared. The reactions were quenched with 10 µL of 7.5 M guanidine hydrochloride; 180 µL of 20 mM Tris buffer (pH 8.0) were added, and the mixture was transferred to a 96-well FlashPlate and incubated for 1 h. The counts per minute (CPM) was measured on a TopCount plate reader. The CPM in the absence of compound or enzyme was defined as 100% activity and background (0%), respectively, for each dataset. […]

PRMT8 = biological target: T2, PRMT8 (Homo sapiens, UniProt Q9NR22); experiment: Methyltransferase selectivity assay (SPA); settings: for activity at 1 µM / Activity %: 1µM compound; for Activity %: Exp1, Exp2, 1 µM; for activity at 10 µM: 10µM compound
T2 construct: purchased Structural Genomics Consortium (SGC Toronto) in-house methyltransferase panel
T2 sequence (Q9NR22 whole entry): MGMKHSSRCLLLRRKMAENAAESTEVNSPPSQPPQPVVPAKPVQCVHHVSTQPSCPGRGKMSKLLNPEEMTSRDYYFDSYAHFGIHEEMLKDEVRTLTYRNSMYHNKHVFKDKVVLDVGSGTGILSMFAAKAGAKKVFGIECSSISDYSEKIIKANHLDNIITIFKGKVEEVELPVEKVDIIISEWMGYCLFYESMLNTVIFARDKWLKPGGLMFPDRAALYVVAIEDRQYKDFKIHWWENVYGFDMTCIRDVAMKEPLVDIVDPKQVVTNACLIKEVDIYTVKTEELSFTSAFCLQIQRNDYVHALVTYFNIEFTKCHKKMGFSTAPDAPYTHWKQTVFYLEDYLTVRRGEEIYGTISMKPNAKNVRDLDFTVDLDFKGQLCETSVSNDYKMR
Procedure: as §1, §2, §3

PRMT1 = biological target: T3, PRMT1 (Homo sapiens, UniProt Q99873); experiment: Methyltransferase selectivity assay (SPA)
T3 construct: purchased Structural Genomics Consortium (SGC Toronto) in-house methyltransferase panel
T3 sequence (Q99873 whole entry): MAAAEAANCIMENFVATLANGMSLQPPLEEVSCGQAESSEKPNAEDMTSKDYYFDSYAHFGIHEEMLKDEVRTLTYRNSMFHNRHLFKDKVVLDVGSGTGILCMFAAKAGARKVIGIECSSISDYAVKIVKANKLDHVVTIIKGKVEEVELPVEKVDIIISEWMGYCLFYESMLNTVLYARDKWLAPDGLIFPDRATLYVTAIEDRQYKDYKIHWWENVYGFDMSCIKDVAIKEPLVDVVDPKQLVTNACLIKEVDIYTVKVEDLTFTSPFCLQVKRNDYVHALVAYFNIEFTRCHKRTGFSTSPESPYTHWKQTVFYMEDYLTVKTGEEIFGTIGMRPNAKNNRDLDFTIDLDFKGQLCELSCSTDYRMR
Procedure: as §1, §2, §3

SETDB1 = biological target: T4, SETDB1 (Homo sapiens, UniProt Q15047); experiment: Methyltransferase selectivity assay (SPA)
T4 construct: purchased Structural Genomics Consortium (SGC Toronto) in-house methyltransferase panel
Procedure: as §1, §2, §3

SETD2 = biological target: T5, SETD2 (Homo sapiens, UniProt Q9BYW2); experiment: Methyltransferase selectivity assay (SPA)
T5 construct: purchased Structural Genomics Consortium (SGC Toronto) in-house methyltransferase panel
T5 sequence (Q9BYW2 whole entry): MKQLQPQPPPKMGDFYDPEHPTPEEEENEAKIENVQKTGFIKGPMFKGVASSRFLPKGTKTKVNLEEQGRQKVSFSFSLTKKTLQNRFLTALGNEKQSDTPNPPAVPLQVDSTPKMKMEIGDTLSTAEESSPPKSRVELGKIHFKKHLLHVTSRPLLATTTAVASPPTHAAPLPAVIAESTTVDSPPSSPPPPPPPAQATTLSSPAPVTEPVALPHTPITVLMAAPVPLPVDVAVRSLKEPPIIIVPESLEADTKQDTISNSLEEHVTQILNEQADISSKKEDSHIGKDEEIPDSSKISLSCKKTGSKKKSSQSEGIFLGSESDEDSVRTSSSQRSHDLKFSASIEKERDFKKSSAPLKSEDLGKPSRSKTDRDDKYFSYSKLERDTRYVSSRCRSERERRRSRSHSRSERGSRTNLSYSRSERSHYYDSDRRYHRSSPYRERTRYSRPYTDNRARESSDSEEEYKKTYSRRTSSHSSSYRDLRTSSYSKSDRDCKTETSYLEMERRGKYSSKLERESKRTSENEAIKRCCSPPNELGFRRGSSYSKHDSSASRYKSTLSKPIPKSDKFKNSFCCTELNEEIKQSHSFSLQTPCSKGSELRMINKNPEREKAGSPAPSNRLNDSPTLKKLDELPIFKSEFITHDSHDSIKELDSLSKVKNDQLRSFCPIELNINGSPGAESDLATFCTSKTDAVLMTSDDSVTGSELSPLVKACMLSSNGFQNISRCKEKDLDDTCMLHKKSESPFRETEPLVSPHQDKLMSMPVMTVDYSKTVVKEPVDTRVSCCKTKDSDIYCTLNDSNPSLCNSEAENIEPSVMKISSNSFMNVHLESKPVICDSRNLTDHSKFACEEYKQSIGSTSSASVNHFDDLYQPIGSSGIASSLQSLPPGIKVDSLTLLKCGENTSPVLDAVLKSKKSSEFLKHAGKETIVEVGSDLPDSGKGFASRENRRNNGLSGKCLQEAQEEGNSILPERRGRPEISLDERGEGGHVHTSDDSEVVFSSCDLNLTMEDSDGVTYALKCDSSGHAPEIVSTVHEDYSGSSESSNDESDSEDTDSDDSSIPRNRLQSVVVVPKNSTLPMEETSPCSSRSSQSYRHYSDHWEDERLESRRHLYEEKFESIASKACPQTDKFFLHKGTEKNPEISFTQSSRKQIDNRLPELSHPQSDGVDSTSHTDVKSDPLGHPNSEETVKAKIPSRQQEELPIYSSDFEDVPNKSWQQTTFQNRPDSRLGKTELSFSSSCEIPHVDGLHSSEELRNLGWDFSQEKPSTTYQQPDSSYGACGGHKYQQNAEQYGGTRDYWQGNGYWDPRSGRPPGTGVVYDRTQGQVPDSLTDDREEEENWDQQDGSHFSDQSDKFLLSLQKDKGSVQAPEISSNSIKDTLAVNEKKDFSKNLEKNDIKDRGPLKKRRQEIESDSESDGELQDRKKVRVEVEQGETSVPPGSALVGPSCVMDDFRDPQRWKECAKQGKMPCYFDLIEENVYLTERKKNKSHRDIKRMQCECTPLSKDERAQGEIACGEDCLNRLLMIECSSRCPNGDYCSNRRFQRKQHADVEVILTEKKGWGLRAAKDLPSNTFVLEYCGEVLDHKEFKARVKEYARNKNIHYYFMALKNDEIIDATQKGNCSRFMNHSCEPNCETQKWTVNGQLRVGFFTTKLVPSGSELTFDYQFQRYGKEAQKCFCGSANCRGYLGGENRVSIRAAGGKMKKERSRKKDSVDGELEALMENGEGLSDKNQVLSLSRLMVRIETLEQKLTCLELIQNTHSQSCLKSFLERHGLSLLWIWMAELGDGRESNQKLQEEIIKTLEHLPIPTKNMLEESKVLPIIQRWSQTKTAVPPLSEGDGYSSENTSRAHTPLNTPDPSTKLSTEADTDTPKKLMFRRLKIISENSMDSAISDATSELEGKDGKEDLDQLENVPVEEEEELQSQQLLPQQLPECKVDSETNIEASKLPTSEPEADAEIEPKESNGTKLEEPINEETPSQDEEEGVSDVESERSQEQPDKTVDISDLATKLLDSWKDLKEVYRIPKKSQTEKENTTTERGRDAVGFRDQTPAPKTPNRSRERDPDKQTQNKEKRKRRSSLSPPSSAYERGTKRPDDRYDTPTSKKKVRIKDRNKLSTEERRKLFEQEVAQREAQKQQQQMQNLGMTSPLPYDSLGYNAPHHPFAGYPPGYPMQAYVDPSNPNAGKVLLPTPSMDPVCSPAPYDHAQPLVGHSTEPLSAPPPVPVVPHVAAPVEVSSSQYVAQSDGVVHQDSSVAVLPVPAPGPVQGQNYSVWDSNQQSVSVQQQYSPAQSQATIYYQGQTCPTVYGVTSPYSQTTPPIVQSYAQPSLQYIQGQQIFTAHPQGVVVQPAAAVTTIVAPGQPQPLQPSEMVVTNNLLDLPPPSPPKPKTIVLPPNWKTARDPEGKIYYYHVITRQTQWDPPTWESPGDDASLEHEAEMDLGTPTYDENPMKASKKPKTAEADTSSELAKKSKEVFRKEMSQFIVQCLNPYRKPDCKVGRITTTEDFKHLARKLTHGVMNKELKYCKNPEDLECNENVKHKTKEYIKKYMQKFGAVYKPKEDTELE
Procedure: as §1, §2, §3

SMYD2 = biological target: T6, SMYD2 (Homo sapiens, UniProt Q9NRG4); experiment: Methyltransferase selectivity assay (SPA)
T6 construct: purchased Structural Genomics Consortium (SGC Toronto) in-house methyltransferase panel
T6 sequence (Q9NRG4 whole entry): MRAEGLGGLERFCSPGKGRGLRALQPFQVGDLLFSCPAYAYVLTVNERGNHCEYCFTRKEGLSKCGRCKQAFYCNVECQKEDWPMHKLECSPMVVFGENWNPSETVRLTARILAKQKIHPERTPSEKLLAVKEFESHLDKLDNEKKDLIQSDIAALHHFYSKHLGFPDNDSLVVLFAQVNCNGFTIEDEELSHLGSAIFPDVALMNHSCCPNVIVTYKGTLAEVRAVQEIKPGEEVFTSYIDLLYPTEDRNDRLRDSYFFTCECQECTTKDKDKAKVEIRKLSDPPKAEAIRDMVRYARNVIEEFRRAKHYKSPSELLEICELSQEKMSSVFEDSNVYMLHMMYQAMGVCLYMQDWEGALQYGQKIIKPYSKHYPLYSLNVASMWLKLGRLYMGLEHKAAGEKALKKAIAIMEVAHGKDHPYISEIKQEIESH
Procedure: as §1, §2, §3

[1] = tested on: 32 protein, DNA and RNA methyltransferases; experiment: Methyltransferase selectivity assay (whole panel); settings: tested at 1 µM and 10 µM of compounds
Procedure: Selectivity against methyltransferases were determined as described previously. Details of the assays are described in the supplementary methods. […]
were tested at (circle) 1 µM and (triangle) 10 µM of compounds. PRDM9 was the only methyltransferase in this panel of MTs that was inhibited by MRK -740.
Effect of both compounds on PRDM7 is presented in figure 1D in the main text. Each experiment was performed at two concentrations (1 and 10 µM) of compounds and in duplicate (n=2). Source data are provided as a Source Data file .
(1 picture or pasted object on this page, not shown here)
as §2
The effect of chemical probes and negative controls on the methyltransferase activities of protein, DNA and RNA methyltransferases was tested by radiometric assays using 3H-SAM. For proteins such as MLL1 trimeric, MLL3 pentameric, EZH1 (PRC2) pentameric, and EZH2 (PRC2) trimeric complexes, as well as G9a, GLP, SUV39H1, SUV39H2, SUV420H1, SUV420H2, SETD2, SETD8, SETDB1, SETD7, PRMT1, PRMT3, PRMT4, PRMT5/ MEP50 complex, PRMT6, PRMT7, PRMT8, PRMT9, PRDM9, SMYD2, SMYD3, DNMT1, and BCDIN3D the incorporation of a tritium-labeled methyl group into biotinylated substrate was monitored using scintillation proximity assay (SPA). […] The counts per minute (CPM) was measured on a TopCount plate reader. […]

[2] = 10µM compound, Exp1, Exp2, 10 µM
[3] = 1µM compound, Exp1, Exp2, read-out: Activity %
[4] = 10µM compound, Exp1, Exp2, read-out: Activity %
[5] = Exp1, Exp2, read-out: Activity %

COc1cc(OC)cc(-c2noc(N3CCN(C)C4(CCN(c5ccccc5)CC4)C3)n2)c1 [MRK-740 -NC]
activity at 1 µM (SETD7; 1µM compound, Exp1, Exp2): 96%
Activity % (SETD7; 1µM compound, Exp1, Exp2, 1 µM): 95%
activity at 10 µM (SETD7; 10µM compound, Exp1, Exp2): 94%
Activity % (SETD7; [2]): 88%
activity at 1 µM (PRMT8; Exp1, Exp2): 97%
Activity % (PRMT8): 104%
activity at 10 µM (PRMT8; Exp1, Exp2): 98%
activity at 1 µM (PRMT1; 1µM compound, Exp1, Exp2): 108%
Activity % (PRMT1; 1µM compound, Exp1, Exp2, 1 µM): 109%
activity at 10 µM (PRMT1; 10µM compound, Exp1, Exp2): 105%
Activity % (PRMT1; [2]): 98%
activity at 1 µM (SETDB1; 1µM compound, Exp1, Exp2): 104%
activity at 10 µM (SETDB1; 10µM compound, Exp1, Exp2): 101%
Activity % (SETDB1; [2]): 86%
activity at 1 µM (SETD2; 1µM compound, Exp1, Exp2): 97%
Activity % (SETD2; 1µM compound, Exp1, Exp2, 1 µM): 107%
activity at 10 µM (SETD2; 10µM compound, Exp1, Exp2): 99%
Activity % (SETD2; [2]): 98%
activity at 1 µM (SMYD2; 1µM compound, Exp1, Exp2): 102%
Activity % (SMYD2; 1µM compound, Exp1, Exp2, 1 µM): 100%
activity at 10 µM (SMYD2; 10µM compound, Exp1, Exp2): 101%
Activity % (SMYD2; [2]): 99%

COc1cc(OC)cc(-c2noc(N3CCN(C)C4(CCN(c5ccccc5)CC4)C3)n2)c1 [MRK-740-NC]
Methyltransferase selectivity (in words) [1]: no effect on activity of any of 33 MTs

COc1cc(OC)cc(-c2noc(N3CCN(C)C4(CCN(c5ccnc(C)c5)CC4)C3)n2)c1 [MRK-740]
Activity % (SETD7; 1µM compound, Exp1, Exp2, 1 µM): 92%
activity at 1 µM (SETD7; [3]): 93%
Activity % (SETD7; [2]): 87%
activity at 10 µM (SETD7; [4]): 90%
Activity % (PRMT8): 95%
activity at 1 µM (PRMT8; [5]): 104%
activity at 10 µM (PRMT8; [5]): 105%
Activity % (PRMT1; 1µM compound, Exp1, Exp2, 1 µM): 96%
activity at 1 µM (PRMT1; [3]): 94%
Activity % (PRMT1; [2]): 89%
activity at 10 µM (PRMT1; [4]): 91%
Activity % (SETDB1; 1µM compound, Exp1, Exp2, 1 µM): 84%
activity at 1 µM (SETDB1; [3]): 81%
Activity % (SETDB1; [2]): 96%
activity at 10 µM (SETDB1; [4]): 86%
Activity % (SETD2; 1µM compound, Exp1, Exp2, 1 µM): 96%
activity at 1 µM (SETD2; [3]): 97%
Activity % (SETD2; [2]): 86%
activity at 10 µM (SETD2; [4]): 90%
Activity % (SMYD2; 1µM compound, Exp1, Exp2, 1 µM): 89%
activity at 1 µM (SMYD2; [3]): 86%
Activity % (SMYD2; [2]): 92%
activity at 10 µM (SMYD2; [4]): 91%
Methyltransferase selectivity (in words) [1]: selective
